Assay results published in PubChem BioAssay (NCI).
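Test compounds were applied to cells in 96-well plates for 48 hours at 5 doses. TGI marks complete inhibition of growth.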

Tests used:
Assay in all cases: NCI-60 cell line screen, 48 h
786-0 renal = test system: 786-0 renal
A498 renal = test system: A498 renal
A549 NSCLC = test system: A549 NSCLC
ACHN renal = test system: ACHN renal
BT-549 breast = test system: BT-549 breast
CCRF-CEM leukemia = test system: CCRF-CEM leukemia
DU-145 prostate = test system: DU-145 prostate
EKVX NSCLC = test system: EKVX NSCLC
HCC-2998 colon = test system: HCC-2998 colon
HCT-116 colon = test system: HCT-116 colon
HCT-15 colon = test system: HCT-15 colon
HL-60(TB) leukemia = test system: HL-60(TB) leukemia
HOP-62 NSCLC = test system: HOP-62 NSCLC
HOP-92 NSCLC = test system: HOP-92 NSCLC
HS 578T breast = test system: HS 578T breast
HT29 colon = test system: HT29 colon
IGROV1 ovarian = test system: IGROV1 ovarian
K-562 leukemia = test system: K-562 leukemia
KM12 colon = test system: KM12 colon
M14 melanoma = test system: M14 melanoma
MALME-3M melanoma = test system: MALME-3M melanoma
MCF7 breast = test system: MCF7 breast
MDA-MB-231 breast = test system: MDA-MB-231 breast
MDA-MB-435 = test system: MDA-MB-435
MDA-N = test system: MDA-N
MOLT-4 leukemia = test system: MOLT-4 leukemia
NCI-H226 lung = test system: NCI-H226 lung
NCI-H23 lung = test system: NCI-H23 lung
NCI-H460 lung = test system: NCI-H460 lung
NCI/ADR-RES ovarian = test system: NCI/ADR-RES ovarian
OVCAR-3 ovarian = test system: OVCAR-3 ovarian
OVCAR-5 ovarian = test system: OVCAR-5 ovarian
OVCAR-8 ovarian = test system: OVCAR-8 ovarian
PC-3 prostate = test system: PC-3 prostate
RXF 393 renal = test system: RXF 393 renal
SF-295 CNS = test system: SF-295 CNS
SK-MEL-2 melanoma = test system: SK-MEL-2 melanoma
SK-MEL-28 melanoma = test system: SK-MEL-28 melanoma
SK-MEL-5 melanoma = test system: SK-MEL-5 melanoma
SK-OV-3 ovarian = test system: SK-OV-3 ovarian
SN12C renal = test system: SN12C renal
SNB-19 CNS = test system: SNB-19 CNS
SR leukemia = test system: SR leukemia
SW-620 colon = test system: SW-620 colon
T-47D breast = test system: T-47D breast
TK-10 renal = test system: TK-10 renal
U251 CNS = test system: U251 CNS
UACC-62 melanoma = test system: UACC-62 melanoma
UO-31 renal = test system: UO-31 renal
CAKI-1 renal = test system: CAKI-1 renal
COLO 205 colon = test system: COLO 205 colon
LOX IMVI melanoma = test system: LOX IMVI melanoma
NCI-H522 lung = test system: NCI-H522 lung
OVCAR-4 ovarian = test system: OVCAR-4 ovarian
RPMI-8226 leukemia = test system: RPMI-8226 leukemia
SF-268 CNS = test system: SF-268 CNS
SF-539 CNS = test system: SF-539 CNS
SNB-75 CNS = test system: SNB-75 CNS
UACC-257 melanoma = test system: UACC-257 melanoma

SMILES: CN(C)c1ccc(/C=C/c2ccc3ccccc3[n+]2C)cc1
- TGI (786-0 renal): > 100 µM
- TGI (A498 renal): 60.1 µM
- TGI (A549 NSCLC): 22.5 µM
- TGI (ACHN renal): 55.3 µM
- TGI (BT-549 breast): 10.5 µM
- TGI (CCRF-CEM leukemia): 24.6 µM
- TGI (DU-145 prostate): 25.5 µM
- TGI (EKVX NSCLC): 5.85 µM
- TGI (HCC-2998 colon): 16.3 µM
- TGI (HCT-116 colon): 10.9 µM
- TGI (HCT-15 colon): 30.4 µM
- TGI (HL-60(TB) leukemia): 3.48 µM
- TGI (HOP-62 NSCLC): 25.6 µM
- TGI (HOP-92 NSCLC): 5.19 µM
- TGI (HS 578T breast): > 100 µM
- TGI (HT29 colon): 8.46 µM
- TGI (IGROV1 ovarian): > 100 µM
- TGI (K-562 leukemia): > 100 µM
- TGI (KM12 colon): 13.6 µM
- TGI (M14 melanoma): 17.1 µM
- TGI (MALME-3M melanoma): 11.2 µM
- TGI (MCF7 breast): 14.4 µM
- TGI (MDA-MB-231 breast): 12.6 µM
- TGI (MDA-MB-435): 13.3 µM
- TGI (MDA-N): 13 µM
- TGI (MOLT-4 leukemia): 4.53 µM
- TGI (NCI-H226 lung): 13.3 µM
- TGI (NCI-H23 lung): 9.26 µM
- TGI (NCI-H460 lung): 12 µM
- TGI (NCI/ADR-RES ovarian): > 100 µM
- TGI (OVCAR-3 ovarian): 15.5 µM
- TGI (OVCAR-5 ovarian): 26.2 µM
- TGI (OVCAR-8 ovarian): 4.3 µM
- TGI (PC-3 prostate): 9.84 µM
- TGI (RXF 393 renal): 9.84 µM
- TGI (SF-295 CNS): 10 µM
- TGI (SK-MEL-2 melanoma): 4.02 µM
- TGI (SK-MEL-28 melanoma): 12.7 µM
- TGI (SK-MEL-5 melanoma): 13.5 µM
- TGI (SK-OV-3 ovarian): 60.6 µM
- TGI (SN12C renal): 15.8 µM
- TGI (SNB-19 CNS): > 100 µM
- TGI (SR leukemia): 4.34 µM
- TGI (SW-620 colon): 12.3 µM
- TGI (T-47D breast): 6.26 µM
- TGI (TK-10 renal): 17.7 µM
- TGI (U251 CNS): 20.7 µM
- TGI (UACC-62 melanoma): 41 µM
- TGI (UO-31 renal): 9.62 µM

SMILES: O=C(O)c1ccccc1CC1Cc2ccccc2C1
- TGI (786-0 renal): > 100 µM
- TGI (A549 NSCLC): > 100 µM
- TGI (ACHN renal): > 100 µM
- TGI (BT-549 breast): > 100 µM
- TGI (CAKI-1 renal): > 100 µM
- TGI (CCRF-CEM leukemia): > 100 µM
- TGI (COLO 205 colon): > 100 µM
- TGI (DU-145 prostate): > 100 µM
- TGI (EKVX NSCLC): > 100 µM
- TGI (HCC-2998 colon): > 100 µM
- TGI (HCT-116 colon): > 100 µM
- TGI (HCT-15 colon): > 100 µM
- TGI (HL-60(TB) leukemia): > 100 µM
- TGI (HOP-62 NSCLC): > 100 µM
- TGI (HOP-92 NSCLC): > 100 µM
- TGI (HS 578T breast): > 100 µM
- TGI (HT29 colon): > 100 µM
- TGI (IGROV1 ovarian): > 100 µM
- TGI (K-562 leukemia): > 100 µM
- TGI (KM12 colon): > 100 µM
- TGI (LOX IMVI melanoma): > 100 µM
- TGI (M14 melanoma): > 100 µM
- TGI (MALME-3M melanoma): > 100 µM
- TGI (MCF7 breast): > 100 µM
- TGI (MDA-MB-231 breast): > 100 µM
- TGI (MDA-MB-435): > 100 µM
- TGI (MDA-N): > 100 µM
- TGI (MOLT-4 leukemia): > 100 µM
- TGI (NCI-H226 lung): > 100 µM
- TGI (NCI-H23 lung): > 100 µM
- TGI (NCI-H460 lung): > 100 µM
- TGI (NCI-H522 lung): > 100 µM
- TGI (NCI/ADR-RES ovarian): > 100 µM
- TGI (OVCAR-3 ovarian): > 100 µM
- TGI (OVCAR-4 ovarian): > 100 µM
- TGI (OVCAR-5 ovarian): > 100 µM
- TGI (OVCAR-8 ovarian): > 100 µM
- TGI (PC-3 prostate): > 100 µM
- TGI (RPMI-8226 leukemia): > 100 µM
- TGI (RXF 393 renal): > 100 µM
- TGI (SF-268 CNS): > 100 µM
- TGI (SF-295 CNS): > 100 µM
- TGI (SF-539 CNS): > 100 µM
- TGI (SK-MEL-2 melanoma): > 100 µM
- TGI (SK-MEL-28 melanoma): > 100 µM
- TGI (SK-MEL-5 melanoma): > 100 µM
- TGI (SK-OV-3 ovarian): > 100 µM
- TGI (SN12C renal): > 100 µM
- TGI (SNB-19 CNS): > 100 µM
- TGI (SNB-75 CNS): > 100 µM
- TGI (SR leukemia): > 100 µM
- TGI (SW-620 colon): > 100 µM
- TGI (T-47D breast): > 100 µM
- TGI (TK-10 renal): > 100 µM
- TGI (U251 CNS): > 100 µM
- TGI (UACC-257 melanoma): > 100 µM
- TGI (UACC-62 melanoma): > 100 µM
- TGI (UO-31 renal): > 100 µM

SMILES: C=CC(=O)NC(O)(C(=O)OCC)C(F)(F)F (stereo not drawn)
- TGI (A549 NSCLC): > 100 µM
- TGI (ACHN renal): > 100 µM
- TGI (BT-549 breast): > 100 µM
- TGI (CAKI-1 renal): > 100 µM
- TGI (CCRF-CEM leukemia): > 100 µM
- TGI (COLO 205 colon): > 100 µM
- TGI (DU-145 prostate): > 100 µM
- TGI (EKVX NSCLC): > 100 µM
- TGI (HCC-2998 colon): > 100 µM
- TGI (HCT-116 colon): > 100 µM
- TGI (HCT-15 colon): > 100 µM
- TGI (HL-60(TB) leukemia): > 100 µM
- TGI (HOP-62 NSCLC): > 100 µM
- TGI (HOP-92 NSCLC): > 100 µM
- TGI (HS 578T breast): > 100 µM
- TGI (HT29 colon): > 100 µM
- TGI (IGROV1 ovarian): > 100 µM
- TGI (K-562 leukemia): > 100 µM
- TGI (KM12 colon): > 100 µM
- TGI (LOX IMVI melanoma): > 100 µM
- TGI (M14 melanoma): > 100 µM
- TGI (MALME-3M melanoma): > 100 µM
- TGI (MCF7 breast): > 100 µM
- TGI (MDA-MB-231 breast): > 100 µM
- TGI (MDA-MB-435): > 100 µM
- TGI (MDA-N): > 100 µM
- TGI (MOLT-4 leukemia): > 100 µM
- TGI (NCI-H226 lung): > 100 µM
- TGI (NCI-H23 lung): > 100 µM
- TGI (NCI-H522 lung): > 100 µM
- TGI (NCI/ADR-RES ovarian): > 100 µM
- TGI (OVCAR-3 ovarian): > 100 µM
- TGI (OVCAR-4 ovarian): > 100 µM
- TGI (OVCAR-5 ovarian): > 100 µM
- TGI (OVCAR-8 ovarian): > 100 µM
- TGI (PC-3 prostate): > 100 µM
- TGI (RPMI-8226 leukemia): > 100 µM
- TGI (RXF 393 renal): > 100 µM
- TGI (SF-268 CNS): > 100 µM
- TGI (SF-295 CNS): > 100 µM
- TGI (SF-539 CNS): > 100 µM
- TGI (SK-MEL-2 melanoma): > 100 µM
- TGI (SK-MEL-28 melanoma): > 100 µM
- TGI (SK-MEL-5 melanoma): > 100 µM
- TGI (SK-OV-3 ovarian): > 100 µM
- TGI (SN12C renal): > 100 µM
- TGI (SNB-19 CNS): > 100 µM
- TGI (SNB-75 CNS): > 100 µM
- TGI (SR leukemia): > 100 µM
- TGI (SW-620 colon): > 100 µM
- TGI (T-47D breast): > 100 µM
- TGI (TK-10 renal): > 100 µM
- TGI (U251 CNS): > 100 µM
- TGI (UACC-257 melanoma): > 100 µM
- TGI (UACC-62 melanoma): > 100 µM
- TGI (UO-31 renal): > 100 µM
